Patent US20100298141A1, “SUBSTITUTED PYRIDINE N-OXIDE HERBICIDES” (E. I. DU PONT DE NEMOURS AND COMPANY, priority 2007, published 2010)

Legend:
barnyardgrass = assay: Test A pre-/postemergence greenhouse test; type: in vivo, Echinochloa crus-galli; details: for Plant response rating, Barnyardgrass: 0 to 100 scale where 0 is no effect and 100 is complete control; for Barnyardgrass plant response rating: 0 to 100 scale
Procedure, shortened: (§1)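 Two application timings were run side by side in the greenhouse. Before emergence, compound went onto the soil surface of loam–sand pots as a directed spray; after emergence, plants at 2–10 cm and the one- to two-leaf stage were treated. Visual injury versus controls was rated at approximately day ten.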

redroot pigweed = assay: Test A pre-/postemergence greenhouse test; type: in vivo, Amaranthus retroflexus; details: for Plant response rating, Pigweed: 0 to 100 scale where 0 is no effect and 100 is complete control; for Pigweed plant response rating: 0 to 100 scale
Procedure, shortened: as §1

velvetleaf [1] = assay: Test A pre-/postemergence greenhouse test; type: in vivo, Abutilon theophrasti; details: for Plant response rating, Velvetleaf: 0 to 100 scale where 0 is no effect and 100 is complete control; for Velvetleaf plant response rating: 0 to 100 scale
Procedure, shortened: as §1

downy brome = assay: Test C pre-/postemergence test; type: in vivo, Bromus tectorum
Excerpt: (§2) Seeds of plant species selected from blackgrass (Alopecurus myosuroides), downy brome (Bromus tectorum), green foxtail (Setaria viridis), Italian ryegrass (Lolium multiflorum), wheat (Triticum aestivum), wild oat (Avena fatua), catchweed bedstraw (Galium aparine), Russian thistle (Salsola kali), […] (Cynodon dactylon), Surinam grass (Brachiaria decumbens), cocklebur (Xanthium strumarium), corn (Zea mays), crabgrass (Digitaria sanguinalis), woolly cupgrass (Eriochloa villosa), giant foxtail (Setaria faberii), Goosegrass (Eleusin indica), johnsongrass (Sorghum halepense), kochia (Kochia scoparia), lambsquarters (Chenopodium album), morningglory (Ipomoea coccinea), eastern black nightshade (Solanum ptycanthum), yellow nutsedge (Cyperus esculentus), pigweed (Amaranthus retroflexus), common ragweed (Ambrosia elation), soybean (Glycine max), common (oilseed) sunflower (Helianthus annuus), and velvetleaf (Abutilon theophrasti) were planted and treated preemergence with test chemicals formulated in a non-phytotoxic solvent mixture which included a surfactant. At the same time, plants selected from these crop and weed species and also winter barley (Hordeum vulgare), canarygrass (Phalaris minor), and chickweed (Stellaria media) were treated with postemergence applications of some of the test chemicals formulated in the same manner. Plants ranged in height from 2 to 18 cm (1- to 4-leaf stage) for postemergence treatments. […] At time of treatment, test pots were flooded to 3 cm above the soil surface, treated by application of test compounds directly to the paddy water, and then maintained at that water depth for the duration of the test. […] A dash (-) response means no test result.

green foxtail = assay: Test C pre-/postemergence test; type: in vivo, Setaria viridis
Excerpt: as §2

wild oat = assay: Test C pre-/postemergence test; type: in vivo, Avena fatua
Excerpt: as §2

Surinam grass = assay: Test C pre-/postemergence test; type: in vivo, Brachiaria decumbens
Excerpt: as §2

cocklebur = assay: Test C pre-/postemergence test; type: in vivo, Xanthium strumarium
Excerpt: as §2

crabgrass = assay: Test C pre-/postemergence test; type: in vivo, Digitaria sanguinalis
Excerpt: as §2

giant foxtail = assay: Test C pre-/postemergence test; type: in vivo, Setaria faberii
Excerpt: as §2

johnsongrass = assay: Test C pre-/postemergence test; type: in vivo, Sorghum halepense; details: for Johnsongrass plant response rating: preemergence, scale 0 (no effect) to 100 (complete control)
Excerpt: as §2

kochia = assay: Test C pre-/postemergence test; type: in vivo, Kochia scoparia
Excerpt: as §2

common ragweed = assay: Test C pre-/postemergence test; type: in vivo, Ambrosia elation
Excerpt: as §2

velvetleaf [2] = assay: Test C pre-/postemergence test; type: in vivo, Abutilon theophrasti
Excerpt: as §2

rice = assay: Test C flooded paddy test; type: in vivo, Oryza sativa; details: Flood
Procedure, shortened: (§3)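 Visual injury ratings against untreated controls, taken 13 to 15 days after compound was added to paddy water standing 3 cm above the soil.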

duck salad = assay: Test C flooded paddy test; type: in vivo, Heteranthera limosa; details: Flood
Procedure, shortened: as §3

[3] = Postemergence, 500 g ai/ha, 0 is no effect, 100 is complete control
[4] = Preemergence, 125 g ai/ha, 0 no effect, 100 complete control
[5] = 62 g ai/ha, Preemergence, scale 0 to 100
[6] = 125 g ai/ha, preemergence, scale 0 (no effect) to 100 (complete control)
[7] = Preemergence, 31 g ai/ha, scale 0 to 100 (0 no effect, 100 complete control)
[8] = preemergence, 250 g ai/ha, scale 0 (no effect) to 100 (complete control)
[9] = 62 g ai/ha, scale 0 to 100 (0 no effect, 100 complete control)
[10] = 250 g ai/ha, scale 0 to 100, 0 no effect, 100 complete control, 13 to 15 days

CCn1nc(C(F)(F)F)c(C[S+]([O-])c2cc(C)cc[n+]2[O-])c1OCC(F)(F)F (racemic) [Compound 66]
Plant response rating, Barnyardgrass (barnyardgrass; Postemergence, 125 g ai/ha): 70 | Barnyardgrass plant response rating (barnyardgrass; [3]): 90 | Barnyardgrass plant response rating (barnyardgrass; [4]): 60 | Plant response rating, Barnyardgrass (barnyardgrass; Preemergence, 500 g ai/ha): 100 | Plant response rating, Pigweed (redroot pigweed; Postemergence, 125 g ai/ha): 60 | Pigweed plant response rating (redroot pigweed; [3]): 90 | Pigweed plant response rating (redroot pigweed; [4]): 100 | Plant response rating, Pigweed (redroot pigweed; Preemergence, 500 g ai/ha): 100 | Plant response rating, Velvetleaf (velvetleaf [1]; Postemergence, 125 g ai/ha): 60 | Velvetleaf plant response rating (velvetleaf [1]; [3]): 80 | Velvetleaf plant response rating (velvetleaf [1]; [4]): 60 | Plant response rating, Velvetleaf (velvetleaf [1]; Preemergence, 500 g ai/ha): 100 | Bromegrass, Downy plant response rating (downy brome; [5]): 90 | Bromegrass, Downy plant response rating (downy brome; [6]): 100 | Plant response rating, Bromegrass, Downy (downy brome; [7]): 70 | Bromegrass, Downy plant response rating (downy brome; [8]): 100 | Foxtail, Green plant response rating (green foxtail; [5]): 100 | Foxtail, Green plant response rating (green foxtail; [6]): 100 | Plant response rating, Foxtail, Green (green foxtail; [7]): 85 | Foxtail, Green plant response rating (green foxtail; [8]): 100 | Oat, Wild plant response rating (wild oat; [5]): 85 | Oat, Wild plant response rating (wild oat; [6]): 95 | Plant response rating, Oat, Wild (wild oat; [7]): 85 | Oat, Wild plant response rating (wild oat; [8]): 95 | Surinam Grass plant response rating (Surinam grass; [5]): 100 | Surinam Grass plant response rating (Surinam grass; [6]): 100 | Plant response rating, Surinam Grass (Surinam grass; [7]): 100 | Surinam Grass plant response rating (Surinam grass; [8]): 100 | Cocklebur plant response rating (cocklebur; [5]): 0 | Cocklebur plant response rating (cocklebur; [8]): 85 | Crabgrass, Large plant response rating (crabgrass; [5]): 100 | Crabgrass, Large plant response rating (crabgrass; [6]): 100 | Plant response rating, Crabgrass, Large (crabgrass; [7]): 100 | Crabgrass, Large plant response rating (crabgrass; [8]): 100 | Foxtail, Giant plant response rating (giant foxtail; [5]): 100 | Foxtail, Giant plant response rating (giant foxtail; [6]): 100 | Plant response rating, Foxtail, Giant (giant foxtail; [7]): 100 | Foxtail, Giant plant response rating (giant foxtail; [8]): 100 | Johnsongrass plant response rating (johnsongrass; 125 g ai/ha): 80 | Plant response rating, Johnsongrass (johnsongrass; [7]): 80 | Johnsongrass plant response rating (johnsongrass; 250 g ai/ha): 80 | Kochia plant response rating (kochia; [5]): 100 | Kochia plant response rating (kochia; [6]): 100 | Plant response rating, Kochia (kochia; [7]): 100 | Kochia plant response rating (kochia; [8]): 100 | Ragweed plant response rating (common ragweed; [5]): 100 | Plant response rating, Ragweed (common ragweed; [7]): 100 | Ragweed plant response rating (common ragweed; [8]): 100 | Velvetleaf plant response rating (velvetleaf [2]; [5]): 90 | Velvetleaf plant response rating (velvetleaf [2]; [6]): 95 | Plant response rating, Velvetleaf (velvetleaf [2]; [7]): 70 | Velvetleaf plant response rating (velvetleaf [2]; [8]): 100 | Plant response rating, Rice (rice; [9]): 20 | Plant response rating, Rice (rice; [10]): 70 | Plant response rating, Ducksalad (duck salad; [9]): 70 | Plant response rating, Ducksalad (duck salad; [10]): 90
